Consider 18 molecules from patent US11427567B2, “Imidazolyl pyrimidinylamine compounds as CDK2 inhibitors” (Incyte Corporation, priority 2019, dated 2022).

Each structure is given as a SMILES string. Where only a bound is given, the exact number is not on record here.

The test has as its target CDK2/Cyclin E1 (Homo sapiens (Human), UniProt P24941). The experiment in a line: CDK2/Cyclin E1 HTRF enzyme activity assay (Example A). It is filed as biochemical. The note with it: 1 mM ATP. As to the method:
Assays were conducted in white 384-well polystyrene plates in a final reaction volume of 8 μL. […] HTRF signals were read after 1 hour at room temperature on a PHERAstar FS plate reader (BMG Labtech). Data was analyzed with IDBS XLFit and GraphPad Prism 5.0 software using a three or four parameter dose response curve to determine IC50 for each compound.
For `CN(C)CCOc1ccc(-n2cnc(-c3nc(NC4CCN(S(C)(=O)=O)CC4)ncc3C(F)(F)F)c2)c(C#N)c1` [Example 435, 5-(2-(Dimethylamino)ethoxy)-2-(4-(2-((1-(methylsulfonyl)piperidin-4-yl)amino)-5-(trifluoromethyl)pyrimidin-4-yl)-1H-imidazol-1-yl)benzonitrile], the IC50 is at most 50 nM.

Consider `O=S(=O)(C1CC1)N1CCC(Nc2ncc(C(F)(F)F)c(-c3cn(-c4ccc(CN5CCC5)cc4Cl)cn3)n2)CC1` [Example 228, 4-(1-(4-(Azetidin-1-ylmethyl)-2-chlorophenyl)-1H-imidazol-4-yl)-N-(1-(cyclopropylsulfonyl)piperidin-4-yl)-5-(trifluoromethyl)pyrimidin-2-amine], for which the IC50 was at most 50 nM.

`CCNCc1cc(F)c(-n2cnc(-c3nc(N[C@H]4CCN(S(C)(=O)=O)C[C@H]4F)ncc3C(F)(F)F)c2)c(F)c1` [Example 444, 4-(1-(4-((Ethylamino)methyl)-2,6-difluorophenyl)-1H-imidazol-4-yl)-N-((3R,4S)-3-fluoro-1-(methylsulfonyl)piperidin-4-yl)-5-(trifluoromethyl)pyrimidin-2-amine]: the IC50 was at most 50 nM.

`Cc1nc(-c2nc(NC3CCN(S(C)(=O)=O)CC3)ncc2C(F)(F)F)cn1C` [Example 19, 4-(1,2-Dimethyl-1H-imidazol-4-yl)-N-(1-(methylsulfonyl)piperidin-4-yl)-5-(trifluoromethyl)pyrimidin-2-amine] came in with an IC50 of 50 to 200 nM.

Take `Cc1cc(CNCC(F)F)ccc1-n1cnc(-c2nc(NC3CCN(S(C)(=O)=O)CC3)ncc2C(F)(F)F)c1` [Example 450, 4-(1-(4-(((2,2-Difluoroethyl)amino)methyl)-2-methylphenyl)-1H-imidazol-4-yl)-N-(1-(methylsulfonyl)piperidin-4-yl)-5-(trifluoromethyl)pyrimidin-2-amine]: the IC50 was at most 50 nM.

With `CCN(C)Cc1ccc(-n2cnc(-c3nc(NC4CCN(S(C)(=O)=O)CC4)ncc3C(F)(F)F)c2)c(C(F)(F)F)c1` [Example 257, 4-(1-(4-((Ethyl(methyl)amino)methyl)-2-(trifluoromethyl)phenyl)-1H-imidazol-4-yl)-N-(1-(methylsulfonyl)piperidin-4-yl)-5-(trifluoromethyl)pyrimidin-2-amine], the IC50 is at most 50 nM.

`CN1CCN(c2ccc(-n3cnc(-c4nc(NC5CCN(S(C)(=O)=O)CC5)ncc4C(F)(F)F)c3)c(Cl)c2)CC1` [Example 148, 4-(1-(2-Chloro-4-(4-methylpiperazin-1-yl)phenyl)-1H-imidazol-4-yl)-N-(1-(methylsulfonyl)-piperidin-4-yl)-5-(trifluoromethyl)-pyrimidin-2-amine] displayed an IC50 of at most 50 nM.

For the molecule `CS(=O)(=O)N1CCC(Nc2ncc(C(F)(F)F)c(-c3cn(-c4cccc(CN5CCC5)c4Cl)cn3)n2)CC1` [Example 366, 4-(1-(3-(Azetidin-1-ylmethyl)-2-chlorophenyl)-1H-imidazol-4-yl)-N-(1-(methylsulfonyl)piperidin-4-yl)-5-(trifluoromethyl)pyrimi-din-2-amine], the IC50 is at most 50 nM.

As for `Cc1nc(-c2nc(NC3CCN(S(C)(=O)=O)CC3)ncc2C(F)(F)F)cn1-c1ccc(N2CC(C)(O)C2)cc1F` [Example 456, 1-(3-Fluoro-4-(2-methyl-4-(2-((1-(methylsulfonyl)piperidin-4-yl)amino)-5-(trifluoromethyl)pyrimidin-4-yl)-1H-imidazol-1-yl)phenyl)-3-methylazetidin-3-ol], the IC50 is at most 50 nM.

The molecule `CS(=O)(=O)N1CCC(Nc2ncc(C(F)(F)F)c(-c3cn(-c4ccc(CN5CCC5)cc4C(F)(F)F)cn3)n2)CC1` [Example 251, 4-(1-(4-(Azetidin-1-ylmethyl)-2-(trifluoromethyl)phenyl)-1H-imidazol-4-yl)-N-(1-(methylsulfonyl)piperidin-4-yl)-5-(trifluoromethyl)pyrimidin-2-amine] displayed an IC50 of at most 50 nM.

`CS(=O)(=O)N1CCC(Nc2ncc(C(F)(F)F)c(-c3cn(-c4ccc(CCN5CCCCC5)cc4C#N)cn3)n2)CC1` [Example 458, 2-(4-(2-((1-(Methylsulfonyl)piperidin-4-yl)amino)-5-(trifluoromethyl)pyrimidin-4-yl)-1H-imidazol-1-yl)-5-(2-(piperidin-1-yl)ethyl)benzonitrile] had an IC50 of at most 50 nM.

As for `CS(=O)(=O)N1CCC(Nc2ncc(C(F)(F)F)c(-c3cn(-c4ccc(CNCC(F)F)cc4Cl)cn3)n2)CC1` [Example 186, 4-(1-(2-Chloro-4-(((2,2-difluoroethyl)-amino)methyl)phenyl)-1H-imidazol-4-yl)-N-(1-(methylsulfonyl)-piperidin-4-yl)-5-(trifluoromethyl)-pyrimidin-2-amine], the IC50 was at most 50 nM.

Regarding `CC(C)(O)Cn1cnc(-c2nc(N[C@@H]3CCN(S(C)(=O)=O)C[C@H]3F)ncc2C(F)(F)F)c1` [Example 326, 1-(4-(2-(((3R,4R)-3-Fluoro-1-(methylsulfonyl)piperidin-4-yl)amino)-5-(trifluoromethyl)pyrimidin-4-yl)-1H-imidazol-1-yl)-2-methylpropan-2-ol], the IC50 is at most 50 nM.

`CCNCc1ccc(-n2cnc(-c3nc(NC4CCN(S(C)(=O)=O)CC4)ncc3C(F)(F)F)c2)c(C(F)(F)F)c1` [Example 255, 4-(1-(4-((Ethylamino)methyl)-2-(trifluoromethyl)phenyl)-1H-imidazol-4-yl)-N-(1-(methylsulfonyl)piperidin-4-yl)-5-(trifluoromethyl)pyrimidin-2-amine] displayed an IC50 of at most 50 nM.

`Cc1nc(-c2nc(NC3CCN(S(C)(=O)=O)CC3)ncc2C(F)(F)F)cn1-c1ccc(OC[C@@H]2CCCN2C)cc1F` [Example 425, (S)-4-(1-(2-Fluoro-4-((1-methylpyrrolidin-2-yl)methoxy)phenyl)-2-methyl-1H-imidazol-4-yl)-N-(1-(methylsulfonyl)piperidin-4-yl)-5-(trifluoromethyl)pyrimidin-2-amine] had an IC50 of at most 50 nM.

Turning to `CCN1CCN(Cc2cc(F)c(-n3cnc(-c4nc(N[C@@H]5CCN(S(C)(=O)=O)C[C@H]5F)ncc4C(F)(F)F)c3)c(Cl)c2)CC1` [Example 403, 4-(1-(2-Chloro-4-((4-ethylpiperazin-1-yl)methyl)-6-fluorophenyl)-1H-imidazol-4-yl)-N-((3R,4R)-3-fluoro-1-(methylsulfonyl)piperidin-4-yl)-5-(trifluoromethyl)pyrimidin-2-amine], the IC50 is at most 50 nM.

`CS(=O)(=O)N1CCC(Nc2ncc(C(F)(F)F)c(-c3cn(-c4ccc(CNC5CC5)cc4Cl)cn3)n2)CC1` [Example 190, 4-(1-(2-Chloro-4-((cyclopropylamino)-methyl)phenyl)-1H-imidazol-4-yl)-N-(1-(methylsulfonyl)-piperidin-4-yl)-5-(trifluoromethyl)-pyrimidin-2-amine] returned an IC50 of at most 50 nM.

Turning to `Cc1nc(-c2nc(NC3CCN(S(C)(=O)=O)CC3)ncc2C(F)(F)F)cn1-c1ccc(CN(C)C)cc1F` [Example 279, 4-(1-(4-((Dimethylamino)methyl)-2-fluorophenyl)-2-methyl-1H-imidazol-4-yl)-N-(1-(methylsulfonyl)piperidin-4-yl)-5-(trifluoromethyl)pyrimidin-2-amine], the IC50 was at most 50 nM.

What is called IC50 is the concentration that gives 50% inhibition. A high value points to lower potency.
